What was measured:
bulk material properties = type: physicochemical; details: water content <2%
Description: The grain shape was examined with the scanning electron microscope and produced the typical, needle-shaped crystals of the glycinates and their agglomerates. With respect to the bulk material properties, the particle distribution analysis found a d50 value of 50 μm. The material is free-flowing, has a water content of <2% and is stable.

[1] = for pH value upon addition to water: 45° C., aqueous solution
Procedure: The procedure for both syntheses was identical so that they are summarized here. 54 g of CaO or respectively MgO were each subjected to a 10-minute activation. In order to have a sufficiently high operating temperature for the thermal activation, the empty mill was already brought to an operating temperature of 110° C. before the experiments. After the mechanical activation, a thermal activation of respectively 15 min. took place in both cases.

With `NCC(=O)[O-].NCC(=O)[O-].[Cu+2]` [Example 1, bis (glycinato) copper] the “stability of the material” value (bulk material properties) was “stable”.

In the case of `[O]=[Mg]` [MgO], the “stability (non-dissolution) in the presence of HCl” value [1] is reported as “stable up to pH 0”.

With `NCC(=O)[O-].NCC(=O)[O-].[Ca+2]` [calcium glycinate] the “pH value upon addition to water” value [1] was 7.5.

With `NCC(=O)[O-].NCC(=O)[O-].[Mg+2]` [magnesium glycinate] the “pH value upon addition to water” value [1] was 8.

Source: US9346830B2, “Method for producing amino acid chelate compounds, amino acid chelate compounds and use of amino acid chelate compounds” (ISF AG, priority 2011, dated 2016)
